The source of these data is article PMC5218480 (PLoS ONE, 2017).

For the assay, the system named is MV-4-11 cells. The assay is described as follows: Gene expression microarray analysis (Affymetrix PrimeView) and GSEA. To be noted: ProbeSet 11732277_a_at; LIST D. On the set-up: RFU PODN (11730768_x_at) / Fold change /veh PODN (11730768_x_at) / RFU LINC00158 (11744669_a_at) / Fold change /veh LINC00158 (11744669_a_at) / RFU DUSP10 (11751237_a_at) / Fold change /veh DUSP10 (11751237_a_at) / RFU ID3 (11757404_x_at) / Fold change /veh ID3 (11757404_x_at) / RFU PLEKHG5 (11737974_s_at) / Fold change /veh PLEKHG5 (11737974_s_at) / RFU LRRC4B (11730491_at) / Fold change /veh LRRC4B (11730491_at) / RFU GIMAP4 (11747438_a_at) / Fold change /veh GIMAP4 (11747438_a_at) / RFU KRT8 (11758183_x_at) / Fold change /veh KRT8 (11758183_x_at) / RFU CNN1 (11734310_a_at) / Fold change /veh CNN1 (11734310_a_at) / RFU VPS37D (11726825_at) / Fold change /veh VPS37D (11726825_at) / RFU C10orf10 (11716522_x_at) / Fold change /veh C10orf10 (11716522_x_at) / RFU KIR2DL2 /// KIR2DL4 /// KIR2DL5A /// KIR2DL5B /// KIR2DS1 /// KIR2DS2 /// KIR2DS3 /// KIR2DS4 /// KIR3DL3 /// KIR3DL3 /// KIR3DS1 (11738374_at) / Fold change /veh KIR2DL2 /// KIR2DL4 /// KIR2DL5A /// KIR2DL5B /// KIR2DS1 /// KIR2DS2 /// KIR2DS3 /// KIR2DS4 /// KIR3DL3 /// KIR3DL3 /// KIR3DS1 (11738374_at) / RFU C1QL1 (11718748_at) / Fold change /veh C1QL1 (11718748_at) / RFU TMPRSS4 (11747572_a_at) / Fold change /veh TMPRSS4 (11747572_a_at) / RFU HAMP (11756126_x_at) / Fold change /veh HAMP (11756126_x_at) / RFU RNFT2 (11725882_a_at) / Fold change /veh RNFT2 (11725882_a_at) / RFU NR4A2 (11747474_a_at) / Fold change /veh NR4A2 (11747474_a_at) / RFU ABCC12 (11746883_a_at) / Fold change /veh ABCC12 (11746883_a_at) / RFU TMEM136 (11760407_x_at) / Fold change /veh TMEM136 (11760407_x_at) / RFU CLDN22 /// WWC2 (11732394_at) / Fold change /veh CLDN22 /// WWC2 (11732394_at) / RFU HLA-DPB1 (11760878_x_at) / Fold change /veh HLA-DPB1 (11760878_x_at) / RFU SPINT1 (11716480_a_at) / Fold change /veh SPINT1 (11716480_a_at) / RFU GAP43 (11754022_s_at) / Fold change /veh GAP43 (11754022_s_at) / RFU A4GNT (11735810_at) / Fold change /veh A4GNT (11735810_at) / RFU PRB3 (11715151_x_at) / Fold change /veh PRB3 (11715151_x_at) / RFU TUBB4B (11761932_at) / Fold change /veh TUBB4B (11761932_at) / RFU CAPN14 (11732068_a_at) / Fold change /veh CAPN14 (11732068_a_at) / RFU TMCC2 (11721928_a_at) / Fold change /veh TMCC2 (11721928_a_at) / RFU IRGQ (11745062_a_at) / Fold change /veh IRGQ (11745062_a_at) / RFU FAM174B (11720279_a_at) / Fold change /veh FAM174B (11720279_a_at) / RFU TMPRSS4 (11748680_a_at) / Fold change /veh TMPRSS4 (11748680_a_at) / RFU FAM212B (11763350_a_at) / Fold change /veh FAM212B (11763350_a_at) / RFU PLEKHG5 (11743358_a_at) / Fold change /veh PLEKHG5 (11743358_a_at) / RFU ZSCAN30 (11745921_a_at) / Fold change /veh ZSCAN30 (11745921_a_at) / RFU CMKLR1 (11741424_a_at) / Fold change /veh CMKLR1 (11741424_a_at) / RFU LOC101060620 /// MAPK8IP1 (11723275_at) / Fold change /veh LOC101060620 /// MAPK8IP1 (11723275_at) / RFU SPTSSB (11747773_x_at) / Fold change /veh SPTSSB (11747773_x_at) / RFU PRSS12 (11739890_at) / Fold change /veh PRSS12 (11739890_at) / RFU BIN1 (11741810_x_at) / Fold change /veh BIN1 (11741810_x_at) / RFU WNT11 (11732464_a_at) / Fold change /veh WNT11 (11732464_a_at) / RFU C10orf10 (11716521_a_at) / Fold change /veh C10orf10 (11716521_a_at) / RFU C5orf56 (11738089_at) / Fold change /veh C5orf56 (11738089_at) / RFU CYB561 (11721691_x_at) / Fold change /veh CYB561 (11721691_x_at) / RFU ANKRD19P (11752326_a_at) / Fold change /veh ANKRD19P (11752326_a_at) / RFU OR2T12 /// OR2T33 /// OR2T8 (11738714_s_at) / Fold change /veh OR2T12 /// OR2T33 /// OR2T8 (11738714_s_at) / RFU VCAN (11748164_a_at) / Fold change /veh VCAN (11748164_a_at) / RFU JSRP1 (11732532_at) / Fold change /veh JSRP1 (11732532_at) / RFU KRTAP10-11 (11738290_x_at) / Fold change /veh KRTAP10-11 (11738290_x_at) / RFU MYO3A (11730013_a_at) / Fold change /veh MYO3A (11730013_a_at) / RFU EBF3 (11725865_a_at) / Fold change /veh EBF3 (11725865_a_at) / RFU CAMK2N1 (11719241_x_at) / Fold change /veh CAMK2N1 (11719241_x_at) / RFU C5orf56 (11738088_a_at) / Fold change /veh C5orf56 (11738088_a_at) / RFU OLFML3 (11715873_a_at) / Fold change /veh OLFML3 (11715873_a_at) / RFU LOC100653217 /// NTM (11731650_a_at) / Fold change /veh LOC100653217 /// NTM (11731650_a_at) / RFU MAPK11 (11762145_a_at) / Fold change /veh MAPK11 (11762145_a_at) / RFU FIZ1 (11724087_x_at) / Fold change /veh FIZ1 (11724087_x_at) / RFU OASL (11726364_x_at) / Fold change /veh OASL (11726364_x_at) / RFU SOX15 (11748057_x_at) / Fold change /veh SOX15 (11748057_x_at) / RFU CD79A (11719716_a_at) / Fold change /veh CD79A (11719716_a_at) / RFU HIST1H1D (11736915_at) / Fold change /veh HIST1H1D (11736915_at) / RFU CASKIN2 (11723855_a_at) / Fold change /veh CASKIN2 (11723855_a_at) / RFU LOC730098 (11760151_x_at) / Fold change /veh LOC730098 (11760151_x_at) / RFU OR4N2 (11742367_at) / Fold change /veh OR4N2 (11742367_at) / RFU PRRT2 (11749266_a_at) / Fold change /veh PRRT2 (11749266_a_at) / RFU SNX32 (11753110_a_at) / Fold change /veh SNX32 (11753110_a_at) / RFU CDHR5 (11726645_a_at) / Fold change /veh CDHR5 (11726645_a_at) / RFU RCAN1 (11760418_a_at) / Fold change /veh RCAN1 (11760418_a_at) / RFU FAM167A (11723789_a_at) / Fold change /veh FAM167A (11723789_a_at) / RFU FAM26E (11764081_at) / Fold change /veh FAM26E (11764081_at) / RFU ISYNA1 (11749810_s_at) / Fold change /veh ISYNA1 (11749810_s_at) / RFU ACY1 (11761880_at) / Fold change /veh ACY1 (11761880_at) / RFU 11764098_at / Fold change /veh 11764098_at / RFU SAMD14 (11745864_x_at) / Fold change /veh SAMD14 (11745864_x_at) / RFU NPB (11741838_a_at) / Fold change /veh NPB (11741838_a_at) / RFU TMPRSS6 (11731388_a_at) / Fold change /veh TMPRSS6 (11731388_a_at) / RFU KRTAP10-2 (11738614_at) / Fold change /veh KRTAP10-2 (11738614_at) / RFU ARHGAP8 /// PRR5-ARHGAP8 (11727945_x_at) / Fold change /veh ARHGAP8 /// PRR5-ARHGAP8 (11727945_x_at) / RFU KRTAP5-7 /// NADSYN1 (11734609_at) / Fold change /veh KRTAP5-7 /// NADSYN1 (11734609_at) / RFU RASL12 (11751679_a_at) / Fold change /veh RASL12 (11751679_a_at) / RFU CDKN2B (11736163_a_at) / Fold change /veh CDKN2B (11736163_a_at) / RFU PRF1 (11729649_at) / Fold change /veh PRF1 (11729649_at) / RFU, ZNF638 /// ZNF638-IT1 / Fold change vs veh, ZNF638 /// ZNF638-IT1 / RFU, PANK3 / Fold change vs veh, PANK3 / RFU, SH3YL1 / Fold change vs veh, SH3YL1 / RFU, ZEB2 / Fold change vs veh, ZEB2 / RFU, NRIP1 / Fold change vs veh, NRIP1 / RFU, PTTG1IP / Fold change vs veh, PTTG1IP / RFU, CAPN2 / Fold change vs veh, CAPN2 / RFU, MED14 / Fold change vs veh, MED14 / RFU, SNORA58 / Fold change vs veh, SNORA58 / RFU, C1orf63 / Fold change vs veh, C1orf63 / RFU, LRRFIP1 / Fold change vs veh, LRRFIP1 / RFU, NDUFAF7 / Fold change vs veh, NDUFAF7 / RFU, SLC12A2 / Fold change vs veh, SLC12A2 / RFU, IBTK / Fold change vs veh, IBTK / RFU, ESF1 / Fold change vs veh, ESF1 / Fold change vs veh, TMEM50B / RFU, TAOK1 / Fold change vs veh, TAOK1 / RFU, ACBD3 / Fold change vs veh, ACBD3 / RFU, TMA16 / Fold change vs veh, TMA16 / RFU, RWDD3 / Fold change vs veh, RWDD3 / RFU, BCAT1 / Fold change vs veh, BCAT1 / RFU, EDEM3 / Fold change vs veh, EDEM3 / RFU, TMEM33 / Fold change vs veh, TMEM33 / RFU, WDR75 / Fold change vs veh, WDR75 / RFU, AHCTF1 / Fold change vs veh, AHCTF1 / RFU, TFRC / Fold change vs veh, TFRC / RFU, ZDHHC17 / Fold change vs veh, ZDHHC17 / RFU, NOM1 / Fold change vs veh, NOM1 / RFU, ARL8B / Fold change vs veh, ARL8B / RFU, ZBTB11 / Fold change vs veh, ZBTB11 / RFU, TAMM41 / Fold change vs veh, TAMM41 / RFU, KIAA1704 /// LOC100996395 / Fold change vs veh, KIAA1704 /// LOC100996395 / RFU, ING1 / Fold change vs veh, ING1 / RFU, TRMT61B / Fold change vs veh, TRMT61B / RFU, FUBP3 / Fold change vs veh, FUBP3 / RFU, TP53 / Fold change vs veh, TP53 / RFU, TNKS2 / Fold change vs veh, TNKS2 / RFU, ZFP14 / Fold change vs veh, ZFP14 / RFU, ACTR2 / Fold change vs veh, ACTR2 / RFU, PPP3R1 / Fold change vs veh, PPP3R1 / RFU, PIK3R1 / Fold change vs veh, PIK3R1 / RFU, HNRNPA1 / Fold change vs veh, HNRNPA1 / RFU, RNF170 / Fold change vs veh, RNF170 / RFU, ZNF28 / Fold change vs veh, ZNF28 / RFU, RNGTT / Fold change vs veh, RNGTT / RFU, OGT / Fold change vs veh, OGT / RFU, BRD1 / Fold change vs veh, BRD1 / RFU, MARS / Fold change vs veh, MARS / RFU, ZNF655 / Fold change vs veh, ZNF655 / RFU, FAHD1 / Fold change vs veh, FAHD1 / RFU, BDP1 / Fold change vs veh, BDP1 / RFU, LRRCC1 / Fold change vs veh, LRRCC1 / RFU, ARID1A / Fold change vs veh, ARID1A / RFU, ZNF146 / Fold change vs veh, ZNF146 / RFU, ZNF330 / Fold change vs veh, ZNF330 / RFU, GPN3 / Fold change vs veh, GPN3 / RFU, C9orf123 / Fold change vs veh, C9orf123 / RFU, N4BP2L2 / Fold change vs veh, N4BP2L2 / RFU, ARFIP1 / Fold change vs veh, ARFIP1 / RFU, FAM179B / Fold change vs veh, FAM179B / RFU, BCL10 / Fold change vs veh, BCL10 / RFU, UHRF1BP1L / Fold change vs veh, UHRF1BP1L / RFU, BET1 / Fold change vs veh, BET1 / RFU, CNOT2 / Fold change vs veh, CNOT2 / RFU, ZNF268 / Fold change vs veh, ZNF268 / Fold change vs veh, ZNF507 / RFU, DGCR2 / Fold change vs veh, DGCR2 / RFU, WDSUB1 / Fold change vs veh, WDSUB1 / Fold change vs veh, HSP90B1 /// MIR3652 / RFU, ADSS / Fold change vs veh, ADSS / RFU, GK / Fold change vs veh, GK / RFU, ZNF148 / Fold change vs veh, ZNF148 / RFU, TAF9 / Fold change vs veh, TAF9 / RFU, SLC1A5 / Fold change vs veh, SLC1A5 / RFU, SLMO2 / Fold change vs veh, SLMO2 / RFU, ABCC4 / Fold change vs veh, ABCC4 / RFU, LOC101060439 /// RAP1B / Fold change vs veh, LOC101060439 /// RAP1B / RFU, RFX7 / Fold change vs veh, RFX7 / RFU, GTPBP10 / Fold change vs veh, GTPBP10 / RFU, CNEP1R1 / Fold change vs veh, CNEP1R1 / RFU, BIVM-ERCC5 /// ERCC5 / Fold change vs veh, BIVM-ERCC5 /// ERCC5 / RFU, ILF3 / Fold change vs veh, ILF3 / RFU 11762660_at / Fold change /veh 11762660_at / RFU VCAN (11757783_s_at) / Fold change /veh VCAN (11757783_s_at) / RFU DDX43 (11728927_at) / Fold change /veh DDX43 (11728927_at) / RFU KRT8 (11758188_x_at) / Fold change /veh KRT8 (11758188_x_at) / RFU NKD1 (11759106_at) / Fold change /veh NKD1 (11759106_at) / RFU SRD5A1 (11742802_a_at) / Fold change /veh SRD5A1 (11742802_a_at) / RFU TPSAB1 /// TPSB2 (11721975_s_at) / Fold change /veh TPSAB1 /// TPSB2 (11721975_s_at) / RFU GSTM3 (11746129_a_at) / Fold change /veh GSTM3 (11746129_a_at) / RFU IL23R (11737362_x_at) / Fold change /veh IL23R (11737362_x_at) / RFU TMEM51 (11727254_a_at) / Fold change /veh TMEM51 (11727254_a_at) / RFU PIWIL2 (11732686_x_at) / Fold change /veh PIWIL2 (11732686_x_at) / RFU ORM1 (11744905_x_at) / Fold change /veh ORM1 (11744905_x_at) / RFU CCDC152 (11743942_at) / Fold change /veh CCDC152 (11743942_at) / RFU ECM1 (11717891_a_at) / Fold change /veh ECM1 (11717891_a_at) / RFU IL23R (11748794_a_at) / Fold change /veh IL23R (11748794_a_at) / RFU TNFAIP8L3 (11732012_x_at) / Fold change /veh TNFAIP8L3 (11732012_x_at) / RFU MBOAT4 (11741988_at) / Fold change /veh MBOAT4 (11741988_at) / RFU 11764193_at / Fold change /veh 11764193_at / RFU TMEM53 (11763286_at) / Fold change /veh TMEM53 (11763286_at) / RFU MAGEB2 (11727129_at) / Fold change /veh MAGEB2 (11727129_at) / RFU TMEM200A (11744735_a_at) / Fold change /veh TMEM200A (11744735_a_at) / RFU CCDC152 (11751479_a_at) / Fold change /veh CCDC152 (11751479_a_at) / RFU FAM211A (11726209_a_at) / Fold change /veh FAM211A (11726209_a_at) / RFU RGS16 (11746705_a_at) / Fold change /veh RGS16 (11746705_a_at) / RFU VCAN (11755009_s_at) / Fold change /veh VCAN (11755009_s_at) / RFU RHOB (11743442_s_at) / Fold change /veh RHOB (11743442_s_at) / RFU RGS16 (11720943_a_at) / Fold change /veh RGS16 (11720943_a_at) / RFU RGS16 (11720944_at) / Fold change /veh RGS16 (11720944_at) / RFU, VPS4B / Fold change vs veh, VPS4B / RFU, CREB1 / Fold change vs veh, CREB1 / RFU, DNAJC13 / Fold change vs veh, DNAJC13 / RFU, GNAQ / Fold change vs veh, GNAQ / RFU, CDK5R1 / Fold change vs veh, CDK5R1 / RFU, ZRANB3 / Fold change vs veh, ZRANB3 / RFU, CUL4A / Fold change vs veh, CUL4A / RFU, CCNY / Fold change vs veh, CCNY / RFU, UFL1 / Fold change vs veh, UFL1 / RFU, COG3 / Fold change vs veh, COG3 / RFU, DIAPH2 / Fold change vs veh, DIAPH2 / RFU, SKA2 / Fold change vs veh, SKA2 / RFU, AFF3 / Fold change vs veh, AFF3 / RFU, LMF1 / Fold change vs veh, LMF1 / RFU, IPO11 / Fold change vs veh, IPO11 / RFU, DFFB / Fold change vs veh, DFFB / RFU, FOXP1 / Fold change vs veh, FOXP1 / RFU, CARD8 / Fold change vs veh, CARD8 / RFU, STRN3 / Fold change vs veh, STRN3 / RFU, ADK / Fold change vs veh, ADK / RFU, RASSF2 / Fold change vs veh, RASSF2 / RFU, WIPF1 / Fold change vs veh, WIPF1 / RFU, LARP1B / Fold change vs veh, LARP1B / RFU, RASA1 / Fold change vs veh, RASA1 / RFU, RB1 / Fold change vs veh, RB1 / RFU, PPFIA1 / Fold change vs veh, PPFIA1 / RFU, MAT2A / Fold change vs veh, MAT2A / RFU, CCT5 / Fold change vs veh, CCT5 / RFU, WDR92 / Fold change vs veh, WDR92 / RFU, CUX1 / Fold change vs veh, CUX1 / RFU, TTC7A / Fold change vs veh, TTC7A / RFU, TMEM135 / Fold change vs veh, TMEM135 / RFU, DEPTOR / Fold change vs veh, DEPTOR / RFU, CPM / Fold change vs veh, CPM / RFU, DNAJB6 / Fold change vs veh, DNAJB6 / RFU, CACNA2D3 / Fold change vs veh, CACNA2D3 / RFU, DTX4 / Fold change vs veh, DTX4 / RFU, TFCP2 / Fold change vs veh, TFCP2 / RFU, GMCL1 /// GMCL1P1 / Fold change vs veh, GMCL1 /// GMCL1P1 / RFU, AEBP2 / Fold change vs veh, AEBP2 / RFU, SNHG1 /// SNORD22 /// SNORD25 /// SNORD26 /// SNORD27 /// SNORD28 /// SNORD29 /// SNORD31 / Fold change vs veh, SNHG1 /// SNORD22 /// SNORD25 /// SNORD26 /// SNORD27 /// SNORD28 /// SNORD29 /// SNORD31 / Fold change (Aza/veh), C12orf56 (ProbeSet 11735607_a_at) / Fold change (ACY-1035/veh), C12orf56 (ProbeSet 11735607_a_at) / Fold change (Aza/veh), FGFR1OP (ProbeSet 11751329_s_at) / Fold change (ACY-1035/veh), FGFR1OP (ProbeSet 11751329_s_at) / Fold change (Aza/veh), VPS36 (ProbeSet 11739960_a_at) / Fold change (ACY-1035/veh), VPS36 (ProbeSet 11739960_a_at) / RFU SYPL1 (11715823_x_at) / Fold change /veh SYPL1 (11715823_x_at) / RFU IGFBP7 (11715501_s_at) / Fold change /veh IGFBP7 (11715501_s_at) / RFU REEP3 (11722064_at) / Fold change /veh REEP3 (11722064_at) / RFU IGLL1 (11728026_x_at) / Fold change /veh IGLL1 (11728026_x_at): dose or concentration left out as unconfirmed. Type of assay: cell-based, human.

`Nc1ccc(-c2cccs2)cc1NC(=O)c1ccc2c(c1)cc(C1CC1)n2CCN1CCOCC1` [ACY-1035]: the “RFU, FOXP1” value worked out at 575.26 RFU.
